# Laboratory results published in US6875451B2, “Compositions and methods for the treatment of primary and metastatic neoplastic diseases using arsenic compounds” (PolaRx Biopharmaceuticals Inc., priority 1997, dated 2005).
# What was measured:
# Type in all cases: cell-based
# SR = assay: SRB growth assay, 2 days exposure, leukemia
# Procedure: (§1) Arsenic trioxide (1 mg/ml, 10 mg/ampoule, manufactured by Taylor Pharmaceuticals, Decatur, Ill.) was tested at five concentrations each at 10-fold dilutions, i.e., 10^−5, 10^−6, 10^−7, 10^−8 and 10^−9 μg/ml.
# (§2) The in vitro tests were performed by incubating the test cells in the presence of the indicated concentration of arsenic trioxide under standard culture conditions for a designated period of time, which is followed by a sulforhodamine B (SRB) protein assay to estimate cell viability or growth. The cell lines are organized into subpanels according to the origin of the cell lines, e.g., leukemia, breast cancer, etc. A description of the cell lines and method of testing is described in Monk et al. (1997, Anticancer Drug Des. 12:533-41) and Weinstein et al., (1997, Science 275:343-9), which are incorporated herein in their entirety.
# (§3) The measurement of an effect is expressed in Percentage Growth (PG). The measured effect of the compound on a cell line is calculated according to one or the other of the following two expressions: If (Mean ODtest−Mean ODzero)≧0. then PG=100×(Mean ODtest−Mean ODzero)/(Mean ODctrl−Mean ODzero) If (Mean ODtest−Mean ODzero)<0. then PG=100×(Mean ODtest−Mean ODzero)/(Mean ODzero where: • Mean ODzero=the average of optical density measurements of SRB-derived color just before exposure of cells to the test compounds; • Mean ODtest=the average of optical density measurements of SRB-derived color after exposure of cells to the test compound for a designated period of time; and • Mean ODctrl=the average of optical density measurements of SRB-derived color after with no exposure of cells to the test compound for a designated period of time
# (§4) The first two columns describe the subpanel (e.g., leukemia) and cell line (e.g., CCRF-CEM) involved. The next two columns list the Mean ODzero and Mean ODctrl; the next five columns list the Mean ODtest for each of five different concentrations. Each concentration is expressed as the log10 (molar or μg/ml). The next five columns list the calculated PGs for each concentration. The response parameters GI50, TGI and LC50 are interpolated values representing the concentrations at which the PG is +50, 0, and −50, respectively. Sometimes these response parameters cannot be obtained by interpolation. If, for instance, all of the PGs in a given row exceed +50, then none of the three parameters can be obtained by interpolation. In such a case, the value given for each response parameter is the highest concentration tested and is preceded by a “>” sign. This practice is extended similarly to the other possible situations where a response parameter cannot be obtained by interpolation.
# (§5) In the first set, the cells from 56 different cancer cell lines were exposed to five concentrations of arsenic trioxide continuously for two days prior to performing the SRB assay. In the second set, the cells from 50 different cell lines (a subset of the first 56 cell lines, plus the renal cancer cell line 786-0) were exposed continuously for six days prior to the SRB assay.
# K-562 = assay: SRB growth assay, 2 days exposure, leukemia
# Procedure: as §1, §2, §3, §4, §5
# RPMI-8226 = assay: SRB growth assay, 2 days exposure, leukemia
# Procedure: as §1, §2, §3, §4, §5
# MOLT-4 = assay: SRB growth assay, 2 days exposure, leukemia
# Procedure: as §1, §2, §3, §4, §5
# DU-145 = assay: SRB growth assay, 6 days exposure, prostate cancer; conditions: DU-145, 6 days
# Procedure: as §1, §2, §3, §4, §5
# SF-295 = assay: SRB growth assay, 6 days exposure, CNS cancer; conditions: SF-295, 6 days
# Procedure: as §1, §2, §3, §4, §5
# SF-539 = assay: SRB growth assay, 6 days exposure, CNS cancer; conditions: SF-539, 6 days
# Procedure: as §1, §2, §3, §4, §5
# U251 = assay: SRB growth assay, 6 days exposure, CNS cancer; conditions: U251, 6 days
# Procedure: as §1, §2, §3, §4, §5
# SNB-75 = assay: SRB growth assay, 6 days exposure, CNS cancer; conditions: SNB-75, 6 days
# Procedure: as §1, §2, §3, §4, §5
# SF-268 = assay: SRB growth assay, 6 days exposure, CNS cancer; conditions: SF-268, 6 days
# Procedure: as §1, §2, §3, §4, §5
substance,measurement,setting,value
arsenic trioxide,TGI,SR,0.00585 ng/mL
same,Percent Growth,SR; log10 conc −4.9,−30%
same,Percent Growth,SR; log10 conc −5.9,60%
same,Percent Growth,SR; log10 conc −6.9,100%
same,Percent Growth,SR; log10 conc −7.9,89%
same,Percent Growth,SR; log10 conc −8.9,99%
same,TGI,K-562,0.011 ng/mL
same,Percent Growth,K-562; log10 conc −4.9,−5%
same,Percent Growth,K-562; log10 conc −5.9,76%
same,Percent Growth,K-562; log10 conc −6.9,100%
same,Percent Growth,K-562; log10 conc −7.9,101%
same,Percent Growth,K-562; log10 conc −8.9,98%
same,TGI,RPMI-8226,0.00723 ng/mL
same,Percent Growth,RPMI-8226; log10 conc −4.9,−21%
same,Percent Growth,RPMI-8226; log10 conc −5.9,65%
same,Percent Growth,RPMI-8226; log10 conc −6.9,87%
same,Percent Growth,RPMI-8226; log10 conc −7.9,93%
same,Percent Growth,RPMI-8226; log10 conc −8.9,96%
same,TGI,MOLT-4,>0.0126 ng/mL
same,Percent Growth,MOLT-4; log10 conc −4.9,4%
same,Percent Growth,MOLT-4; log10 conc −5.9,77%
same,Percent Growth,MOLT-4; log10 conc −6.9,105%
same,Percent Growth,MOLT-4; log10 conc −7.9,105%
same,Percent Growth,MOLT-4; log10 conc −8.9,109%
same,TGI,DU-145,6.32E−06
same,Mean Optical Densities,DU-145; Log 10 Concentration −4.9,0.055
same,Percent Growth,DU-145; Log 10 Concentration −4.9,−43%
same,Mean Optical Densities,DU-145; Log 10 Concentration −5.9,2.153
same,Percent Growth,DU-145; Log 10 Concentration −5.9,100%
same,Mean Optical Densities,DU-145; Log 10 Concentration −6.9,1.935
same,Percent Growth,DU-145; Log 10 Concentration −6.9,89%
same,Mean Optical Densities,DU-145; Log 10 Concentration −7.9,1.954
same,Percent Growth,DU-145; Log 10 Concentration −7.9,90%
same,Mean Optical Densities,DU-145; Log 10 Concentration −8.9,2.147
same,Percent Growth,DU-145; Log 10 Concentration −8.9,99%
same,CC50,DU-145; read-out: LC50 (the source's name),> 12.6 µM
same,TGI,SF-295,3.25E−06
same,Mean Optical Densities,SF-295; Log 10 Concentration −4.9,0.010
same,Percent Growth,SF-295; Log 10 Concentration −4.9,−69%
same,Mean Optical Densities,SF-295; Log 10 Concentration −5.9,0.659
same,Percent Growth,SF-295; Log 10 Concentration −5.9,49%
same,Mean Optical Densities,SF-295; Log 10 Concentration −6.9,1.244
same,Percent Growth,SF-295; Log 10 Concentration −6.9,94%
same,Mean Optical Densities,SF-295; Log 10 Concentration −7.9,1.279
same,Percent Growth,SF-295; Log 10 Concentration −7.9,97%
same,Mean Optical Densities,SF-295; Log 10 Concentration −8.9,1.284
same,Percent Growth,SF-295; Log 10 Concentration −8.9,97%
same,TGI,SF-539,3.29E−06
same,Mean Optical Densities,SF-539; Log 10 Concentration −4.9,0.017
same,Percent Growth,SF-539; Log 10 Concentration −4.9,−59%
same,Mean Optical Densities,SF-539; Log 10 Concentration −5.9,0.691
same,Percent Growth,SF-539; Log 10 Concentration −5.9,42%
same,Mean Optical Densities,SF-539; Log 10 Concentration −6.9,1.545
same,Percent Growth,SF-539; Log 10 Concentration −6.9,97%
same,Mean Optical Densities,SF-539; Log 10 Concentration −7.9,1.403
same,Percent Growth,SF-539; Log 10 Concentration −7.9,87%
same,Mean Optical Densities,SF-539; Log 10 Concentration −8.9,1.727
same,Percent Growth,SF-539; Log 10 Concentration −8.9,108%
same,TGI,U251,8.51E−07
same,Mean Optical Densities,U251; Log 10 Concentration −4.9,−0.012
same,Percent Growth,U251; Log 10 Concentration −4.9,−100%
same,Mean Optical Densities,U251; Log 10 Concentration −5.9,0.088
same,Percent Growth,U251; Log 10 Concentration −5.9,−17%
same,Mean Optical Densities,U251; Log 10 Concentration −6.9,1.908
same,Percent Growth,U251; Log 10 Concentration −6.9,81%
same,Mean Optical Densities,U251; Log 10 Concentration −7.9,2.018
same,Percent Growth,U251; Log 10 Concentration −7.9,86%
same,Mean Optical Densities,U251; Log 10 Concentration −8.9,2.129
same,Percent Growth,U251; Log 10 Concentration −8.9,91%
same,TGI,SNB-75,3.80E−06
same,Mean Optical Densities,SNB-75; Log 10 Concentration −4.9,0.028
same,Percent Growth,SNB-75; Log 10 Concentration −4.9,−79%
same,Mean Optical Densities,SNB-75; Log 10 Concentration −5.9,0.815
same,Percent Growth,SNB-75; Log 10 Concentration −5.9,73%
same,Mean Optical Densities,SNB-75; Log 10 Concentration −6.9,1.024
same,Percent Growth,SNB-75; Log 10 Concentration −6.9,96%
same,Mean Optical Densities,SNB-75; Log 10 Concentration −7.9,1.033
same,Percent Growth,SNB-75; Log 10 Concentration −7.9,97%
same,Mean Optical Densities,SNB-75; Log 10 Concentration −8.9,1.143
same,Percent Growth,SNB-75; Log 10 Concentration −8.9,108%
same,TGI,SF-268,2.57E−06
same,Mean Optical Densities,SF-268; Log 10 Concentration −4.9,−0.004
same,Percent Growth,SF-268; Log 10 Concentration −4.9,−100%
same,Mean Optical Densities,SF-268; Log 10 Concentration −5.9,0.387
same,Percent Growth,SF-268; Log 10 Concentration −5.9,45%
same,Mean Optical Densities,SF-268; Log 10 Concentration −6.9,0.356
same,Percent Growth,SF-268; Log 10 Concentration −6.9,41%
same,Mean Optical Densities,SF-268; Log 10 Concentration −7.9,0.381
same,Percent Growth,SF-268; Log 10 Concentration −7.9,44%
same,Mean Optical Densities,SF-268; Log 10 Concentration −8.9,0.990
same,Percent Growth,SF-268; Log 10 Concentration −8.9,126%
